The structures appear in SMILES notation. Where only a bound is given, the exact number is not on record here.

The test system of one assay is Daudi. Nature of the assay: CCK-8 tumor cell proliferation, Daudi. The arrangement: species or system Human. As to conditions: Table 13, designed based on BCR-ABL inhibitors; 96 h. As to the method: (§1) The tumor cells used herein were cultured in a cell culture medium listed in table 4 at 37° C. in an incubator with 5% CO2. Prior to experimentation, all cells used were correctly identified by STR profiling, and tested negative for mycoplasma through routine screenings.
(§2) IC50 values of the compounds of the present disclosure (including the compounds in Tables 1 and 3, and compounds of examples) were measured using the Meilun Cell Counting Kit-8 kit from Dalian Meilun Biotech Co., Ltd. Assay details are as follows: tumor cells were seeded in a 96-well plate at a density listed in Table 5. After 24 h, 100 μL of the inoculated cells were treated with 0.5 μL of the compounds of the present disclosure (including the compounds in Tables 1 and 3, and compounds of examples) at 10 different successively decreasing concentrations (starting at the highest concentration of 10 μM; 5-fold serial dilutions). After the cells were treated with the compounds of the present disclosure for a period of time, the cell viability detection reagent was added to the culture medium for cell viability assessment according to the instructions provided with the CCK-8 kit. […] The growth inhibition of the compounds of the present disclosure on cells was plotted by Prism Graphpad software, and the IC50 values of the compounds of the present disclosure were calculated therefrom.

The test system of the next assay is PC-3. Nature of the assay: CCK-8 tumor cell proliferation, PC-3. Conditions: 96 h. In kind it is cell-based, Human. How it is done:
as §1, §2

A further assay concerns HCC827. Nature of the assay: CCK-8 tumor cell proliferation, HCC827. In kind it is cell-based, Human. Conditions: Table 11, designed based on EGFR inhibitors; 96 h.
A further assay has as its system PC-9. The assay can be described thus: CCK-8 tumor cell proliferation, PC-9. In kind it is cell-based, Human. As to conditions: Table 11, designed based on EGFR inhibitors; 96 h.
A further assay relates to NCI-H358. The assay can be described thus: CCK-8 tumor cell proliferation, NCI-H358. Further details: species or system Human. As to conditions: Table 11, designed based on EGFR inhibitors; 96 h. As to the method: The tumor cells used herein were cultured in a cell culture medium listed in table 4 at 37° C. in an incubator with 5% CO2.
as §2, with “After” for “IC50 values of the compounds of the present disclosure (including the compounds in Tables 1 and 3, and compounds of examples) were measured using the Meilun Cell Counting Kit-8 kit from Dalian Meilun Biotech Co., Ltd. Assay details are as follows: tumor cells were seeded in a 96-well plate at a density listed in Table 5. After”

A further assay relates to CCRF-CEM. Nature of the assay: CCK-8 tumor cell proliferation, CCRF-CEM. Type of assay: cell-based, Human. The arrangement: IC50 for inhibiting the proliferation of tumor cells, CCRF-CEM: scale not given here. Conditions: for IC50 for inhibiting the proliferation of tumor cells, CCRF-CEM: Table 16, designed based on BET inhibitors, 96 h. The method in brief:
(§3)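 IC50 derived from CCK-8 cell viability after compound treatment. Dilution series: 10 concentrations, 5-fold apart, from 10 μM. Compound added 24 h post-seeding; culture at 37 °C in 5% CO2.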

The subject of another assay is Kasumi-1. The assay can be described thus: CCK-8 tumor cell proliferation, Kasumi-1. Type of assay: cell-based, Human. As to conditions: for IC50 for inhibiting the proliferation of tumor cells, Kasumi-1: 72 h. The method in brief: as §3
Another assay concerns Mino. Nature of the assay: CCK-8 tumor cell proliferation, Mino. Type of assay: cell-based, Human. Conditions: for IC50 for inhibiting the proliferation of tumor cells, Mino: 72 h. A digest of the protocol: as §3
The next assay relates to SU-DHL-4. Nature of the assay: CCK-8 tumor cell proliferation, SU-DHL-4. In kind it is cell-based, Human. As to conditions: Homo sapiens, Table 19, IRAK4 inhibitor based, read-out: IC50 inhibiting proliferation of tumor cells, SU-DHL-4. The method in brief:
as §3

The subject of the next assay is MV-4-11. The assay can be described thus: CCK-8 tumor cell proliferation, MV-4-11. Conditions: Homo sapiens, MV4-11; Table 19, IRAK4 inhibitor based; MV-4-11; read-out: IC50 inhibiting proliferation of tumor cells, MV-4-11. In kind it is cell-based, Human. A digest of the protocol:
as §3

A further assay has as its system MM.1R. The assay can be described thus: CCK-8 tumor cell proliferation, MM.1R. Type of assay: cell-based. Conditions: Table 19, IRAK4 inhibitor based, read-out: IC50 inhibiting proliferation of tumor cells, MM.1R. A digest of the protocol: as §3
A further assay deals with SW620. The assay can be described thus: CCK-8 tumor cell proliferation, SW620. Type of assay: cell-based, Human. As to conditions: Homo sapiens, SW-620; Table 19, IRAK4 inhibitor based; SW620; read-out: IC50 inhibiting proliferation of tumor cells, SW620. A digest of the protocol:
as §3

Another assay relates to NCI-H1666. The assay can be described thus: CCK-8 tumor cell proliferation, NCI-H1666. Type of assay: cell-based, Human. As to conditions: Homo sapiens, Table 19, IRAK4 inhibitor based, read-out: IC50 inhibiting proliferation of tumor cells, NCI-H1666. As to the method:
as §1, §2

The next assay concerns Jurkat. The assay can be described thus: CCK-8 tumor cell proliferation, Jurkat. Conditions: Homo sapiens, Table 19, IRAK4 inhibitor based, read-out: IC50 inhibiting proliferation of tumor cells, Jurkat. Type of assay: cell-based, Human. A digest of the protocol:
as §3

The subject of a further assay is CAL-62. Nature of the assay: CCK-8 tumor cell proliferation, CAL-62. Type of assay: cell-based, Human. Conditions: Homo sapiens; Table 19, IRAK4 inhibitor based; CAL-62; read-out: IC50 inhibiting proliferation of tumor cells, CAL-62. The method in brief: as §3
The mark [1] stands for this setting: Table 16, designed based on BET inhibitors.
Where [2] appears, read: Table 13, designed based on BCR-ABL inhibitors.

For the molecule `Cc1ccc(NC(=O)c2ccc(CN3CCN(Cc4ccc5c(c4)CN(C4CCC(=O)NC4=O)C5=O)CC3)cc2)cc1Nc1nccc(-c2cccnc2)n1` (stereo not drawn) [GT-02969, 4-((4-((2-(2,6-dioxopiperidin-3-yl)-1-oxoisoindolin-5-yl)methyl)piperazin-1-yl)methyl)-N-(4-methyl-3-((4-(pyridin-3-yl)pyrimidin-2-yl)amino)phenyl)benzamide], the “IC50 for inhibiting the proliferation of tumor cells, Daudi” value with Daudi was “A+”.

`N#Cc1ccc(O[C@H]2CC[C@H](NC(=O)c3ccc(N4CCC(N5CCN(Cc6ccc7c(c6)CN(C6CCC(=O)NC6=O)C7=O)CC5)CC4)nn3)CC2)cc1Cl` (stereo partly drawn) [GT-02989, N-((1r,4r)-4-(3-chloro-4-cyanophenoxy)cyclohexyl)-6-(4-(4-((2-(2,6-dioxopiperidin-3-yl)-1-oxoisoindolin-5-yl)methyl)piperazin-1-yl)piperidin-1-yl)pyridazine-3-carboxamide]: the “IC50 for inhibiting the proliferation of tumor cells, PC-3” value in the assay on PC-3 (Table 10, designed based on AR inhibitors) is “A+”.

For the molecule `COc1cc2ncnc(Nc3ccc(F)c(Cl)c3)c2cc1NC(=O)/C=C/CN1CCN(Cc2ccc3c(c2)CN(C2CCC(=O)NC2=O)C3=O)CC1` (stereo not drawn) [GT-03265, (E)-N-(4-((3-chloro-4-fluorophenyl)amino)-7-methoxyquinazolin-6-yl)-4-(4-((2-(2,6-dioxopiperidin-3-yl)-1-oxoisoindolin-5-yl)methyl)piperazin-1-yl)but-2-enamide], the “IC50 for inhibiting the proliferation of tumor cells, HCC827” value in the assay with HCC827 was “A+”. Besides, the “IC50 for inhibiting the proliferation of tumor cells, PC-9” value with PC-9 is reported as “A+”. For the same molecule, the “IC50 for inhibiting the proliferation of tumor cells, NCI-H358” value in the assay with NCI-H358 is recorded as “A+”.

On to `Cc1sc2c(c1C)C(c1ccc(Cl)cc1)=N[C@@H](CC(=O)NCCN1CCN(Cc3ccc4c(c3)CN(C3CCC(=O)NC3=O)C4=O)CC1)c1nnc(C)n1-2` (stereo partly drawn) [GT-03296, 2-((S)-4-(4-chlorophenyl)-2,3,9-trimethyl-6H-thieno[3,2-f][1,2,4]triazolo[4,3-a][1,4]diazepin-6-yl)-N-(2-(4-((2-(2,6-dioxopiperidin-3-yl)-1-oxoisoindolin-5-yl)methyl)piperazin-1-yl)ethyl)acetamide], for which, in the assay with CCRF-CEM, the “IC50 for inhibiting the proliferation of tumor cells, CCRF-CEM” value was “A+”. In addition, the “IC50 for inhibiting the proliferation of tumor cells, Kasumi-1” value with Kasumi-1 (setting [1]) is given as “A+”. For the same molecule, in the assay with Mino (setting [1]), the “IC50 for inhibiting the proliferation of tumor cells, Mino” value is “A+”. Moreover, the “IC50 for inhibiting the proliferation of tumor cells, PC-3” value in the assay on PC-3 (setting [1]) is given as “A+”.

In the case of `COc1cc2ncnc(Nc3ccc(Cl)c(Cl)c3F)c2cc1OCc1ccc2c(c1)CN(C1CCC(=O)NC1=O)C2=O` (stereo not drawn) [GT-03354, 3-(5-(((4-((3,4-dichloro-2-fluorophenyl)amino)-7-methoxyquinazolin-6-yl)oxy)methyl)-1-oxoisoindolin-2-yl)piperidine-2,6-dione], the “IC50 for inhibiting the proliferation of tumor cells, NCI-H358” value with NCI-H358 is “A+”.

On to `Cc1ccc(NC(=O)c2ccc(CNCc3ccc4c(c3)CN(C3CCC(=O)NC3=O)C4=O)cc2)cc1Nc1nccc(-c2cccnc2)n1` (stereo not drawn) [GT-03377, 4-((((2-(2,6-dioxopiperidin-3-yl)-1-oxoisoindolin-5-yl)methyl)amino)methyl)-N-(4-methyl-3-((4-(pyridin-3-yl)pyrimidin-2-yl)amino)phenyl)benzamide], for which the “IC50 for inhibiting the proliferation of tumor cells, Daudi” value with Daudi was “A+”. The “IC50 for inhibiting the proliferation of tumor cells, Kasumi-1” value in the assay on Kasumi-1 (setting [2]) is “A+”. Also, the “IC50 for inhibiting the proliferation of tumor cells, Mino” value with Mino (setting [2]) is given as “A+”.

For the molecule `C=CC(=O)Nc1cc2c(Nc3ccc(F)c(Cl)c3)ncnc2cc1OCCCN1CCN(Cc2ccc3c(c2)CN(C2CCC(=O)NC2=O)C3=O)CC1` (stereo not drawn) [GT-03411, N-(4-((3-chloro-4-fluorophenyl)amino)-7-(3-(4-((2-(2,6-dioxopiperidin-3-yl)-1-oxoisoindolin-5-yl)methyl)piperazin-1-yl)propoxy)quinazolin-6-yl)acrylamide], the “IC50 for inhibiting the proliferation of tumor cells, PC-9” value in the assay with PC-9 is listed as “A+”. Also, the “IC50 for inhibiting the proliferation of tumor cells, NCI-H358” value with NCI-H358 is given as “A+”.

On to `COc1cc2ncnc(Nc3ccc(Cl)c(Cl)c3F)c2cc1OC1CCN(Cc2ccc3c(c2)CN(C2CCC(=O)NC2=O)C3=O)CC1` (stereo not drawn) [GT-03412, 3-(5-((4-((4-((3,4-dichloro-2-fluorophenyl)amino)-7-methoxyquinazolin-6-yl)oxy)piperidin-1-yl)methyl)-1-oxoisoindolin-2-yl)piperidine-2,6-dione], for which the “IC50 for inhibiting the proliferation of tumor cells, PC-9” value in the assay on PC-9 is listed as “A+”. Besides, the “IC50 for inhibiting the proliferation of tumor cells, NCI-H358” value in the assay on NCI-H358 is on record as “A+”.

On to `Cc1nc(Nc2ncc(C(=O)Nc3c(C)cccc3Cl)s2)cc(N2CCC(N(C)Cc3ccc4c(c3)CN(C3CCC(=O)NC3=O)C4=O)CC2)n1` (stereo not drawn) [GT-03545, N-(2-chloro-6-methylphenyl)-2-((6-(4-(((2-(2,6-dioxopiperidin-3-yl)-1-oxoisoindolin-5-yl)methyl)(methyl)amino)piperidin-1-yl)-2-methylpyrimidin-4-yl)amino)thiazole-5-carboxamide], for which the “IC50 for inhibiting the proliferation of tumor cells, Daudi” value in the assay on Daudi is “A+”. Besides, the “IC50 for inhibiting the proliferation of tumor cells, Mino” value with Mino (setting [2]) is “A+”.

In the case of `COc1cc(OC)c2c(=O)[nH]c(-c3ccc(N4CCC(N5CCN(Cc6ccc7c(c6)CN(C6CCC(=O)NC6=O)C7=O)CC5)CC4)cc3)nc2c1` (stereo not drawn) [GT-03708, 3-(5-((4-(1-(4-(5,7-dimethoxy-4-oxo-3,4-dihydroquinazolin-2-yl)phenyl)piperidin-4-yl)piperazin-1-yl)methyl)-1-oxoisoindolin-2-yl)piperidine-2,6-dione], the “IC50 for inhibiting the proliferation of tumor cells, CCRF-CEM” value in the assay on CCRF-CEM is “A+”. Moreover, the “IC50 for inhibiting the proliferation of tumor cells, Mino” value in the assay on Mino (setting [1]) is “A+”. Also, in the assay on PC-3 (setting [1]), the “IC50 for inhibiting the proliferation of tumor cells, PC-3” value is listed as “A+”.

Regarding `O=C1CCC(N2Cc3cc(CN4CCC(n5cc(NC(=O)c6cnn7ccc(N8CCOCC8)nc67)c(C(F)F)n5)CC4)c(F)cc3C2=O)C(=O)N1` (stereo not drawn) [GT-03811, N-(3-(difluoromethyl)-1-(1-((2-(2,6-dioxopiperidin-3-yl)-6-fluoro-1-oxoisoindolin-5-yl)methyl)piperidin-4-yl)-1H-pyrazol-4-yl)-5-morpholinopyrazolo[1,5-a]pyrimidine-3-carboxamide], the IC50 in the assay with SU-DHL-4 was 100 to 500 nM; in the assay on CCRF-CEM (Homo sapiens, Table 19, IRAK4 inhibitor based, CCRF-CEM, read-out: IC50 inhibiting proliferation of tumor cells, CCRF-CEM) it was under 50 nM; with Kasumi-1 (Homo sapiens, Table 19, IRAK4 inhibitor based, Kasumi-1, read-out: IC50 inhibiting proliferation of tumor cells, Kasumi-1), under 50 nM; in the assay on Mino (Homo sapiens, Table 19, IRAK4 inhibitor based, Mino, read-out: IC50 inhibiting proliferation of tumor cells, Mino), under 50 nM; with MV-4-11, under 50 nM; in the assay with MM.1R, under 50 nM. Further, the IC50 is under 50 nM in the assay with SW620, 50 to 100 nM with NCI-H1666, under 50 nM in the assay on Jurkat and under 50 nM in the assay on CAL-62.

On to `Cc1sc2c(c1C)C(c1ccc(Cl)cc1)=N[C@@H](CC(=O)OC(C)(C)C)c1nnc(C)n1-2` [JQ-1, reference compound], for which, in the assay with PC-3 (Table 16, designed based on BET inhibitors, read-out: IC50 for inhibiting the proliferation of tumor cells, PC-3), the IC50 is over 10000 nM.
